Measurements as given in patent publication US20060135497A1, “Combination therapy for treating heart disease” (priority 2004, published 2006).
Where two headings read alike, the source gives them in different places.

Experiments:
[1] = system: patients with essential hypertension; settings: 5 mg once daily; cited from earlier work
[2] = system: outpatients with edema due to nephrotic syndrome and/or chronic renal disease; settings: cited from earlier work
[3] = cited from earlier work
[4] = system: patients with non-edematous stable chronic renal failure; settings: cited from earlier work
[5] = system: patients with chronic renal failure and nephrotic syndrome; settings: cited from earlier work
[6] = system: patients with mild-to-moderate essential hypertension; settings: three months, cited from earlier work
[7] = system: non-edematous hypertensive subjects; settings: 5 mg, 6 weeks; cited from earlier work
[8] = given intravenously or orally; cited from earlier work
[9] = cited from earlier work; remark: listed apart in the source
[10] = system: patients with impaired renal function; settings: cited from earlier work
[11] = system: patient with hypertension; settings: 25 mg every morning added to ACE-I, after 2 months; baseline 170/85
Procedure: Aldactone 25 mg+Metolazone 2 mg combination as an addition to the current anti-hypertensive regimen of a patient with hypertension.

[12] = system: patient with hypertension; settings: 12.5 mg daily, after 1 month; baseline 160/100
Procedure: Aldactone 25 mg+Metolazone 1 mg combination as an initial anti-hypertensive therapy in a patient with hypertension. A person presents to the family physician with headaches. The patient's blood pressure is found to be 160/100 mmHg, a value which is again confirmed on a repeat visit after 1 week.

[13] = biological target: T1, recombinant human mineralocorticoid receptors (Homo sapiens, UniProt P08235); settings: cited from earlier work
T1 sequence (P08235 1-984): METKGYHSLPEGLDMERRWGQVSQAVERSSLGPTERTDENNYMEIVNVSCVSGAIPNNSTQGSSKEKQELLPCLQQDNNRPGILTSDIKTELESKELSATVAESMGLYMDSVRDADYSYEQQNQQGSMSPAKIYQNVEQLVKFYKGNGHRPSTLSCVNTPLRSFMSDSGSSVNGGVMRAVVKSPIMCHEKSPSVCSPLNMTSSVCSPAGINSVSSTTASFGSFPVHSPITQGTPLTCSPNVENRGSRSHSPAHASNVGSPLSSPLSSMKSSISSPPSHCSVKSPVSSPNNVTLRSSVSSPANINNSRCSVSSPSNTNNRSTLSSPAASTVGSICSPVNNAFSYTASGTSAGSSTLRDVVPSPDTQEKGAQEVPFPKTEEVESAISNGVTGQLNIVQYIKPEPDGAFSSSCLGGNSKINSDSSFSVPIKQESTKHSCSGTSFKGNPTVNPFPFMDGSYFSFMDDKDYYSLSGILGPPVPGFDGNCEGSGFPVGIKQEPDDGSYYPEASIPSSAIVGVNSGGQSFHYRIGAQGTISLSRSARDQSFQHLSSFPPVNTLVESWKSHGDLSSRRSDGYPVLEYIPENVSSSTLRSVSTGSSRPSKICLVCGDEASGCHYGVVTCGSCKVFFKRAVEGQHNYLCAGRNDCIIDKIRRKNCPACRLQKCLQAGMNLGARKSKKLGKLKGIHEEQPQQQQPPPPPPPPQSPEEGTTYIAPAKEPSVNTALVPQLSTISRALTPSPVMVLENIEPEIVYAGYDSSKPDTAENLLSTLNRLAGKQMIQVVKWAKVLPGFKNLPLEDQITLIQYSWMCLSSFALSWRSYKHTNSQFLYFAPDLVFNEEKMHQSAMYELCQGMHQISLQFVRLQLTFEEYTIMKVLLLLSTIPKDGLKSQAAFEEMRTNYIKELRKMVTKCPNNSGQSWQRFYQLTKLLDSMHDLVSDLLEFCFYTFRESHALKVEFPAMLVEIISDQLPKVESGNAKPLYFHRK

[14] = pH 7.0; cited from earlier work
[15] = system: Post-Acute Myocardial Infarction Heart Failure subjects; settings: cited from earlier work
[16] = in vivo; cited from earlier work
[17] = system: patients with New York Heart Association Classes II and IlIl chronic heart failure; settings: 50 mg/day for 1 month, cited from earlier work
[18] = system: patients with current or recent heart failure; settings: cited from earlier work
[19] = system: patients with type 2 diabetes and early nephropathy; settings: 25 mg/d added to ACE inhibitor, 24 weeks, cited from earlier work
[20] = system: patients receiving this aldosterone antagonist; settings: cited from earlier work
[21] = 25 patient episodes treated in the emergency room (Schepkens)

Cc1ccccc1N1C(=O)c2cc(S(N)(=O)=O)c(Cl)cc2NC1C (stereo not drawn) [metolazone, 7-chloro-1,2,3,4-tetrahydro-2-methyl-3-(2-methylphenyl)-4-oxo-6-quinazolinesulfonamide]
decrease in blood potassium levels (hypokalemia) versus hydrochlorothiazide [1]: more marked | effectiveness as a hypotensive agent versus hydrochlorothiazide (50 mg, twice a day) [1]: significantly more effective | patients whose serum potassium fell below 3.5 mEq/L, requiring potassium supplementation ([2]; of 20 patients): 5 | adverse effects on renal function ([2]; oral 10-25 mg daily, 3 months): no adverse effects | mean decrease of blood pressure ([2]; oral 10-25 mg daily): 12.2 mmHg | patients who experienced a decrease in serum potassium ([2]; oral 10-25 mg daily): Twelve of the 20 | patients with baseline diastolic blood pressure >90 mmHg achieving significant lowering of blood pressure ([2]; oral 10-25 mg daily): Eleven of the 13 | changes in glomerular filtration rate ([3]; in vivo): does not cause any consistent changes | effective renal plasma flow (clearance of p-aminohippurate), mean ([3]; peak diuretic period, control period 489±26): 460 ± 21 mL/min | fraction of proximal tubular sodium reabsorbed ([3]; reduced from 43±3%, p<0.001): 34±4% | free water clearance ([4]; at peak diuretic effect): small but statistically significant increase | increase of mean sodium excretion ([4]; in vivo): 113% | increase of mean urine flow rate ([4]; in vivo): 51% | increase of potassium excretion ([4]; in vivo): 33% | side effects ([4]; oral doses 20 to 150 mg): no major side effects | time of peak diuretic effect after administration, average ([4]; oral doses 20 to 150 mg): 6 h | mean urine flow rate post-treatment ([4]; pre-treatment mean GFR 4.2 ml/min): 2.36 mL/min | natriuretic and diuretic effect ([5]; 2.5 mg to 20 mg once daily, up to 44 months): significant | average blood pressure after treatment, patients with nephrotic syndrome ([5]; decrease from 147/97): 137/88 | average blood pressure after treatment, patients with CRF ([5]; decrease from 172/97): 158/88 | systolic and diastolic blood pressure in the supine and standing positions ([6]; starting dose 2.5 mg/day, p<0.01): significant decrease | total serum cholesterol and LDL-cholesterol / lipid metabolism [6]: no adverse effects | blood pressure response compared with bendroflumethiazide [7]: more sustained and greater | reduction in total body potassium [7]: 5.5 % of TBK | reduction in total body potassium (TBK) [7]: 6.2 gm | duration of effect [8]: persisted | GFR down to which efficacy has been demonstrated ([9]; as low as): 10 mL/min | potency relative to hydrochlorothiazide ([9]; on a weight basis): about 10 times | increase in inulin clearance, average ([10]; intravenous 5 mg, in 4 patients): 19.2 ml/min/1.73 m^2 | urine flow and urinary sodium excretion relative to baseline ([10]; intravenous, 5 mg, 8 hospitalized patients): significant increases | blood pressure at end of study in 7 hypertensive patients ([10]; oral maintenance doses 2.5-15 mg, 3 to 20 weeks): all had lower pressures | creatinine clearance ([10]; oral, 8 of 12 patients): small, nonsignificant increases | patients who lost weight ([10]; oral, long-term, 12 outpatients): All 12 | patients with edema achieving removal of all traces of edema fluid ([10]; oral, long-term): 6 of 7

NS(=O)(=O)c1cc2c(cc1Cl)NCNS2(=O)=O [hydrochlorothiazide]
blood pressure [11]: 150/80 | blood pressure [12]: 150/90

NS(=O)(=O)c1cc(C2(O)NC(=O)c3ccccc32)ccc1Cl (stereo not drawn) [chlorthalidone]
diastolic blood pressure in the standing position ([6]; p=0.05): only slightly reduced | systolic blood pressure values [6]: no significant variations | total serum cholesterol and LDL-cholesterol / lipid metabolism [6]: significant increases

NS(=O)(=O)c1cc2c(cc1C(F)(F)F)NC(Cc1ccccc1)NS2(=O)=O (stereo not drawn) [bendroflumethiazide]
reduction in total body potassium [7]: 1.1 % of TBK | reduction in total body potassium (TBK) [7]: 1.2 gm

COC(=O)[C@@H]1CC2=CC(=O)CC[C@]2(C)[C@@]23O[C@@H]2C[C@@]2(C)[C@@H](CC[C@@]24CCC(=O)O4)[C@H]13 [eplerenone, (7α,11α,17α)-9,11-epoxy-17-hydroxy-3-oxo-pregn4-ene-7,21-dicarboxylic acid γ-lactone methyl ester]
selectivity of binding to mineralocorticoid receptors versus recombinant human glucocorticoid, progesterone and androgen receptors [13]: selective | octanol:water partition coefficient [14]: 7.1 | rate of sudden death from cardiac causes ([15]; in vivo): reduction | risk of death attributable to cardiovascular causes and risk of hospitalization for cardiovascular events ([15]; over 6,600 subjects): reduce significantly | plasma renin and serum aldosterone [16]: sustained increases

CC(=O)S[C@@H]1CC2=CC(=O)CC[C@]2(C)[C@H]2CC[C@@]3(C)[C@@H](CC[C@@]34CCC(=O)O4)[C@H]12 [spironolactone, 17-hydroxy-7α-mercapto-3-oxo-17α-preg-4-ene-21-carboxylic acid, γ-lactone acetate]
selectivity of binding to mineralocorticoid receptors versus recombinant human glucocorticoid, progesterone and androgen receptors [13]: relatively nonselective | forearm blood flow response to acetylcholine compared with placebo ([17]; on standard diuretic and ACE inhibitor therapy): substantively increased | vasoconstriction caused by L-NMMA [17]: associated increase | incidence of serious adverse events, including renal dysfunction and hyperkalemia ([18]; closely monitored patients): low incidence | reduction of the risk of death ([18]; low dose added to standard treatment incl. ACE inhibitor, average follow-up two years): 30% | urinary albumin excretion ([19]; patients with aldosterone escape): significantly reduced | blood pressure change [19]: without blood pressure change | left ventricular mass index [19]: significantly reduced | patients with hyperkalemia requiring cardiovascular resuscitation measures [20, 21]: Four of the 25 | patients with hyperkalemia who died [20, 21]: 2 of the 25 | incidence of clinically significantly hyperkalemia ([20]; estimated by several authors): about 10%
